# Key:
# [1] = biological target: T1, human notum pectinacetyltransferase (Homo sapiens, UniProt Q6P988); experiment: Reporter assay (CellSensor LEF/TCF-bla FreeStyle 293F cells, Wnt3a and notum conditioned media); assay type: cell-based; conditions: class symbols
# T1 construct: made in house; unpurified conditioned medium used
# T1 sequence (Q6P988 20-496): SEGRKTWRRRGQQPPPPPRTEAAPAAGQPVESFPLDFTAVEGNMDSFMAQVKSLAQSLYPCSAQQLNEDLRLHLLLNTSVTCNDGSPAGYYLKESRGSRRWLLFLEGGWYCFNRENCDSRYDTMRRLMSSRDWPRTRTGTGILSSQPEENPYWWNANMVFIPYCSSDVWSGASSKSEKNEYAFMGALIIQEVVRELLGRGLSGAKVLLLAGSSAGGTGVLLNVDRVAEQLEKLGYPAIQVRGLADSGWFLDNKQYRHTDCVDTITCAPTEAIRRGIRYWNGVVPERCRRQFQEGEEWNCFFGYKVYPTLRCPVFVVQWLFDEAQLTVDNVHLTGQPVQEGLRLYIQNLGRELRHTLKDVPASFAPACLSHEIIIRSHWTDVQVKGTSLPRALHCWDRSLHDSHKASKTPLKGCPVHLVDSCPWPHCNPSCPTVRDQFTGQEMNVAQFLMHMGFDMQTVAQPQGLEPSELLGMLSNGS
# [2] = biological target: T1, human notum pectinacetyltransferase; experiment: Binding assay (OPTS esterase substrate, fluorimetric); assay type: biochemical
# Protocol: Plasmid containing human notum pectinacetyltransferase in pcDNA3.1(+) vector was transfected into HEK (293 cells and clones were selecting by growing in presence of 400 ug/mL of G418. Condition media from these cells was used for the assay.
# [3] = given as a numeric bound above the legend's range
Structure (SMILES),EC50 [1] [nM],IC50 ([2]; class symbols) [nM],"IC50 [2, 3] [nM]"
O=C(O)C1CCN(C(=O)c2cc3c(s2)-c2cc(F)cc(F)c2SC3)C1 (centres unmarked),< 50,< 1000,–
O=C1CCN(C(=O)c2cc3c(s2)-c2cc(F)cc(F)c2SC3)C1,< 50,< 50,–
O=C(O)C1CN(C(=O)c2cc3c(s2)-c2ccc(Cl)c(F)c2OC3)CC1c1cccs1 (centres unmarked),< 50,< 1000,–
COc1ccccc1C1CN(C(=O)c2cc3c(s2)-c2ccc(Cl)c(F)c2OC3)CC1C(=O)O (centres unmarked),< 50,< 1000,–
O=C(O)CNC(=O)c1cc2c(s1)-c1ccccc1CC2,< 50,< 100,–
NC(=O)c1cc2c(s1)-c1ccsc1CC2,< 50,< 50,–
O=C(O)c1cc2c(s1)-c1ccsc1CC2,< 500,< 50,–
O=C(O)c1cc2c(s1)-c1ccccc1OCC2,< 50,< 50,–
NC(=O)c1cc2c(s1)-c1ccccc1SCC2,< 50,< 50,–
CC(=O)N1Cc2cc(C(=O)O)sc2-c2ccccc21,< 100,< 2000,–
O=C(O)c1cc2c(s1)-c1ccccc1CCC2,< 1000,< 1000,–
COc1ccc2c(c1Br)CCc1cc(C(N)=O)sc1-2,< 50,< 50,–
O=C(O)c1cc2c(s1)-c1cc(Cl)cc(Br)c1OC2,< 50,< 1000,–
NC(=O)c1cc2c(s1)-c1cccc(Cl)c1SC2,< 50,< 1000,–
O=C(O)c1cc2c(s1)-c1cccc(Cl)c1SC2,< 50,< 2000,–
Cc1ccc2c(c1Cl)CCc1cc(C(N)=O)sc1-2,< 50,< 50,–
Cc1ccc2c(c1Cl)CCc1cc(C(=O)O)sc1-2,< 50,< 100,–
O=C(O)c1cc2c(s1)-c1cc(F)cc(Cl)c1SC2,< 50,< 50,–
NC(=O)c1cc2c(s1)-c1cc(F)cc(Cl)c1SC2,< 50,< 100,–
NC(=O)c1cc2c(s1)-c1cccc(F)c1CC2,< 50,< 50,–
O=C(O)c1cc2c(s1)-c1cccc(F)c1CC2,< 50,< 50,–
COc1ccc2c(c1F)CCc1cc(C(=O)O)sc1-2,< 50,< 100,–

Structure (SMILES),EC50 [1] [nM],IC50 ([2]; class symbols) [nM],"IC50 [2, 3] [nM]"
Cc1ccc2c(c1F)CCc1cc(C(N)=O)sc1-2,< 50,< 50,–
Cc1ccc2c(c1F)CCc1cc(C(=O)O)sc1-2,< 50,< 100,–
Cc1cc(F)c2c(c1)-c1sc(C(N)=O)cc1CC2,< 50,< 50,–
NC(=O)c1cc2c(s1)-c1ccc(Cl)c(Cl)c1OC2,< 50,< 100,–
NC(=O)c1cc2c(s1)-c1ccc(Cl)c(Cl)c1SC2,< 50,< 100,–
O=C(O)c1cc2c(s1)-c1ccc(Cl)c(Cl)c1SC2,< 50,< 100,–
O=C(NCc1ccccn1)c1cc2c(s1)-c1ccc(F)c(F)c1CC2,< 50,< 50,–
NC(=O)c1cc2c(s1)-c1cc(F)c(F)c(F)c1SC2,< 50,< 50,–
NC(=O)c1cc2c(s1)-c1cc(Cl)cc(Cl)c1SC2,< 50,< 2000,–
O=C(O)c1cc2c(s1)-c1cc(Cl)cc(Cl)c1SC2,< 50,< 1000,–
NC(=O)c1cc2c(s1)-c1cc(F)cc(F)c1SC2,< 50,< 50,–
Cc1cc(C)c2c(c1)-c1sc(C(N)=O)cc1CO2,< 50,< 2000,–
Cc1cc(C)c2c(c1)-c1sc(C(=O)O)cc1CC2,< 50,< 50,–
O=C(O)c1cc2c(s1)-c1sc(Cl)cc1CC2,< 500,< 50,–
NC(=O)c1cc2c(s1)-c1ccc(Cl)c(F)c1OC2,< 50,< 50,–
O=C(O)c1cc2c(s1)-c1ccc(Cl)c(F)c1OC2,< 50,< 100,–
O=C(O)c1cc2c(s1)-c1ccc(Cl)c(F)c1SC2,< 50,< 50,–
NC(=O)c1cc2c(s1)-c1ccc(Cl)c(F)c1SC2,< 50,< 50,–
O=C(O)c1cc2c(s1)-c1cc(F)c(Cl)cc1S(=O)(=O)C2,< 50,< 2000,–
O=C(O)c1cc2c(s1)-c1cc(F)c(Cl)cc1SC2,< 50,< 100,–
NC(=O)c1cc2c(s1)-c1cc(F)c(Cl)cc1SC2,< 50,< 100,–
COc1ccc2c(c1)OCc1cc(C(N)=O)sc1-2,< 100,< 1000,–

Structure (SMILES),EC50 [1] [nM],IC50 ([2]; class symbols) [nM],"IC50 [2, 3] [nM]"
COc1ccc2c(c1)OCc1cc(C(=O)O)sc1-2,< 100,< 2000,–
Cc1ccc2c(c1[N+](=O)[O-])CCc1cc(C(=O)O)sc1-2,< 50,< 50,–
NC(=O)c1cc2c(s1)-c1ccc(Cl)c(Cl)c1OCC2,< 50,< 2000,–
O=C(O)c1cc2c(s1)-c1ccc(Cl)c(Cl)c1OCC2,< 50,< 50,–
NC(=O)c1cc2c(s1)-c1cc(Cl)c(Cl)cc1CC2,< 50,< 1000,–
O=C(O)c1cc2c(s1)-c1cc(Cl)c(Cl)cc1CC2,< 50,< 100,–
NC(=O)c1cc2c(s1)-c1cc(F)c(F)cc1OC2,< 50,< 100,–
O=C(O)c1cc2c(s1)-c1cc(F)c(F)cc1OC2,< 50,< 100,–
NC(=O)c1cc2c(s1)-c1cc(Br)ccc1OC2,< 50,< 1000,–
O=C(O)c1cc2c(s1)-c1cc(Br)ccc1OC2,< 50,< 100,–
O=C(O)c1cc2ccc3scc(Cl)c3c2s1,< 1000,< 50,–
Cc1cc(F)cc2c1SCc1cc(C(=O)O)sc1-2,< 50,< 1000,–
Cc1cc2c(cc1F)-c1sc(C(=O)O)cc1CS2,< 50,< 100,–
O=C(O)c1cc2c(s1)-c1cc([N+](=O)[O-])ccc1OC2,< 50,< 1000,–
NC(=O)c1cc2c(s1)-c1cc(Cl)ccc1OCC2,< 100,< 100,–
O=C(O)c1cc2c(s1)-c1cc(Cl)ccc1OCC2,< 100,< 100,–
NC(=O)c1cc2c(s1)-c1cc(F)ccc1OCC2,< 50,< 50,–
O=C(O)c1cc2c(s1)-c1cc(F)ccc1OCC2,< 50,< 50,–
NC(=O)c1cc2c(s1)-c1cc(F)ccc1CCC2,< 50,< 50,–
O=C(O)c1cc2c(s1)-c1cc(F)ccc1CCC2,< 1000,< 1000,–
O=C(NCCn1ccnc1)c1cc2c(s1)-c1cccc(F)c1CC2,< 500,–,> 2000
CC(C)(C#N)NC(=O)c1cc2c(s1)-c1ccccc1CC2,< 500,< 1000,–

Structure (SMILES),EC50 [1] [nM],IC50 ([2]; class symbols) [nM],"IC50 [2, 3] [nM]"
O=C(NCCO)c1cc2c(s1)-c1ccccc1CCC2,< 100,< 100,–
N#CCNC(=O)c1cc2c(s1)-c1ccccc1CC2,< 50,< 50,–
O=C(NC1CC1)c1cc2c(s1)-c1ccccc1CC2,< 50,–,> 2000
CNC(=O)c1cc2c(s1)-c1ccccc1CC2,< 50,< 100,–
CN(C)C(=O)c1cc2c(s1)-c1ccccc1CC2,< 50,< 1000,–
O=C(c1cc2c(s1)-c1cc(F)cc(F)c1SC2)N1CCCC1CO (centres unmarked),< 100,< 1000,–
O=C(c1cc2c(s1)-c1cc(F)cc(F)c1SC2)N1CCC(O)C1 (centres unmarked),< 50,< 50,–
COC1CCN(C(=O)c2cc3c(s2)-c2cc(F)cc(F)c2SC3)C1 (centres unmarked),< 50,< 100,–
O=C(c1cc2c(s1)-c1cc(F)cc(F)c1SC2)N1CC[C@H](F)C1,< 50,< 1000,–
O=C(c1cc2c(s1)-c1c(F)ccc(F)c1SC2)N1CC[C@H](F)C1,< 50,< 100,–
O=C(c1cc2c(s1)-c1cc(F)c(Cl)cc1SC2)N1CC[C@H](F)C1,< 50,< 1000,–
CCOC(=O)c1cc2c(s1)-c1ccc(C)c(Cl)c1CC2,< 50,< 1000,–
CCOC(=O)c1cc2c(s1)-c1cc(C)cc(F)c1CC2,< 50,< 1000,–
CCOC(=O)c1cc2c(s1)-c1cc(C)cc(C)c1CC2,< 100,< 2000,–
CCOC(=O)c1cc2c(s1)-c1ccc(Cl)c(F)c1SC2,< 100,< 1000,–
CCOC(=O)c1cc2c(s1)-c1ccc(C)c([N+](=O)[O-])c1CC2,< 50,< 100,–
O=C(O)C1CCN(C(=O)c2cc3c(s2)-c2c(F)ccc(F)c2SC3)C1 (centres unmarked),< 50,< 100,–
COC(=O)C1CN(C(=O)c2cc3c(s2)-c2cc(C)cc(F)c2CC3)CC1c1ccccc1 (centres unmarked),< 50,< 1000,–
COC(=O)C1CCN(C(=O)c2cc3c(s2)-c2cc(F)cc(F)c2SC3)C1 (centres unmarked),< 50,< 1000,–
COC(=O)C1CN(C(=O)c2cc3c(s2)-c2ccc(Cl)c(F)c2OC3)CC1c1ccccc1F (centres unmarked),< 50,< 100,–
COC(=O)CNC(=O)c1cc2c(s1)-c1ccccc1CC2,< 50,< 1000,–
COC(=O)CNC(=O)c1cc2c(s1)-c1cc(C)cc(C)c1CC2,< 100,< 2000,–
